Common to all, as to assay type: cell-based
Assay [1] has as its target T1, AKT1 E17K (Homo sapiens, UniProt P31749, E17K).
T1 construct: expressed in transfected cells; host or cells: HEK293
In words: Live cell AKT1 E17K target engagement by NanoBRET competitive probe displacement. To be noted: HEK293 cells transfected with kinase-NanoLuciferase fusion, 2 h at 37° C. The method in brief:
(§1)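 HEK293 cells transiently expressing kinase–NanoLuc fusions overnight; treated with serial compound dilutions plus fluorescent ATP-competitive tracer at ~EC50, 2 h at 37 °C. BRET ratio E600/E460 read after substrate and extracellular luciferase inhibitor; IC50 from log(inhibitor) vs response Hill fit.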
On the technique in general: BRET reads energy transfer from a luciferase to a nearby fluorophore.

Assay [2] concerns the target T2, AKT2 (Homo sapiens, UniProt P31751).
T2 construct: expressed in transfected cells; host or cells: HEK293
The assay can be described thus: Live cell AKT2 target engagement by NanoBRET competitive probe displacement. The conditions noted are these: HEK293 cells transfected with kinase-NanoLuciferase fusion, 2 h at 37° C. The procedure, abridged:
as §1

Assay [3] has as its target T3, AKT1 WT (Homo sapiens, UniProt P31749).
T3 construct: expressed in transfected cells; host or cells: HEK293
In words: Live cell AKT1 WT target engagement by NanoBRET competitive probe displacement. The conditions noted are these: HEK293 cells transfected with kinase-NanoLuciferase fusion, 2 h at 37° C. The procedure, abridged: as §1

For assay [4], the system named is LAPC4 prostate cancer cells. The assay can be described thus: Antiproliferative effects in LAPC4 cells (CellTiter Glo). To be noted: LAPC4 cells (AKT1 E17K allele), read-out: LAPC4 proliferation IC50. The procedure, abridged:
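LAPC4 prostate cancer cells carrying AKT1 E17K, grown in IMDM with 12% FBS, were seeded at 1,000 cells/well and exposed to compound dilutions for 72 h. Viability was read as intracellular ATP by CellTiter Glo luminescence, and IC50 was fitted with a log(inhibitor) vs. response Hill equation.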
(In general: In ATP-based viability assays light output follows the ATP content of the culture.)

pIC50: −log10 of the molar value. Read-outs that look alike come from different tables or passages of the source.

T1 sequence (P31749 whole entry E17K): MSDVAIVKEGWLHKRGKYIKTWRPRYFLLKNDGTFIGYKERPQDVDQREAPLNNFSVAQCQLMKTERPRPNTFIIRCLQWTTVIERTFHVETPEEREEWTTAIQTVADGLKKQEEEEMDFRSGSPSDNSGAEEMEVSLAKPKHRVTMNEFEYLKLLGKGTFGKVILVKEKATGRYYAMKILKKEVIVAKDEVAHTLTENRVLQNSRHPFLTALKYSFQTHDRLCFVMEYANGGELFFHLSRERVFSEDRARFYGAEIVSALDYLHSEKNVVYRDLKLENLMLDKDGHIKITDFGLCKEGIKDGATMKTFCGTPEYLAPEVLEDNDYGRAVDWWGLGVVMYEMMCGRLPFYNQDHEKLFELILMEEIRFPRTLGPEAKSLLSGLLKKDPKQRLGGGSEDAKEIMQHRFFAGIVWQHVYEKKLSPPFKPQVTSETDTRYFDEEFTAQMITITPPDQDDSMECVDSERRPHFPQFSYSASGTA
T2 sequence (P31751 whole entry): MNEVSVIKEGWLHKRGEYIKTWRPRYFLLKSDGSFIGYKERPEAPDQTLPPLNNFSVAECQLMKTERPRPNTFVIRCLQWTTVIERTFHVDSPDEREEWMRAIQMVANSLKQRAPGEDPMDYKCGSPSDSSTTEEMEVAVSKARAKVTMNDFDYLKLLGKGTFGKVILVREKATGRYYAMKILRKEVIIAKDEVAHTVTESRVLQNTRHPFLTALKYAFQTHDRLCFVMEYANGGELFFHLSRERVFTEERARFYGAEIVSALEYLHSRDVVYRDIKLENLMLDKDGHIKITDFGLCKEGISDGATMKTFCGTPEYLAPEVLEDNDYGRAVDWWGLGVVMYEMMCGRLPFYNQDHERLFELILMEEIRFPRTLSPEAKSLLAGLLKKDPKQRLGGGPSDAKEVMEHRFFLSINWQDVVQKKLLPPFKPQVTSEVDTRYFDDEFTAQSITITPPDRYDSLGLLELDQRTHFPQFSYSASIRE
T3 sequence (P31749 whole entry): as the sequence (P31749 whole entry E17K) above, with K17E counted along it

Turning to `C=CC(=O)N1CCOCC(N[C@H]2CCc3cc(-n4c(-c5cccnc5N)nc5ccc(-n6cccn6)nc54)ccc32)C1` (single isomer, unassigned) [Example 53, 1-((*)-6-(((S)-5-(2-(2-aminopyridin-3-yl)-5-(1H-pyrazol-1-yl)-3H-imidazo[4,5-b]pyridin-3-yl)-2,3-dihydro-1H-inden-1-yl)amino)-1,4-oxazepan-4-yl)prop-2-en-1-one], the pIC50 in assay [1] was < 6.00; in assay [2], 5.40; in assay [3], 6.39; in assay [4] (72 h), 5.55.

For `C=CC(=O)N1CC2CC[C@@H]1CC2N[C@H]1CCc2cc(-n3c(-c4cccnc4N)nc4ccc(-n5cccn5)nc43)ccc21` (single isomer, unassigned) [Example 131, 1-[(1R,4R,5*)-5-{[(1S)-5-[2-(2-aminopyridin-3-yl)-5-(pyrazol-1-yl)imidazo[4,5-b]pyridin-3-yl]-2,3-dihydro-1H-inden-1-yl]amino}-2-azabicyclo[2.2.2]octan-2-yl]prop-2-en-1-one], the pIC50 is < 6.00 in assay [1]; 5.02 in assay [2]; < 6.00 in assay [3]; 5.74 in assay [4] (Homo sapiens, LAPC4, 72 h).

Regarding `C=CC(=O)N(C)CC(=O)N[C@H]1CCc2cc(-n3c(-c4cccnc4N)nc4ccc(-n5cccn5)nc43)ccc21` [Example 52, (S)-N-(2-((5-(2-(2-aminopyridin-3-yl)-5-(1H-pyrazol-1-yl)-3H-imidazo[4,5-b]pyridin-3-yl)-2,3-dihydro-1H-inden-1-yl)amino)-2-oxoethyl)-N-methylacrylamide], the pIC50 in assay [1] was 6.02; in assay [2], 5.46; in assay [3] it was 6.76; in assay [4] (Homo sapiens, LAPC4, 72 h) it was 6.04.

For `C=CC(=O)N1CCN(NC2CCc3cc(-n4c(-c5cccnc5N)nc5ccc(-n6cccn6)nc54)ccc32)CC1` (single isomer, unassigned) [Example 148, (*)-1-(4-((5-(2-(2-aminopyridin-3-yl)-5-(1H-pyrazol-1-yl)-3H-imidazo[4,5-b]pyridin-3-yl)-2,3-dihydro-1H-inden-1-yl)amino)piperazin-1-yl)prop-2-en-1-one], the pIC50 is 7.42 in assay [1], 7.21 in assay [2], 7.90 in assay [3] and 7.03 in assay [4] (72 h).

As for `C=CC(=O)N1CCC(C(=O)N[C@H]2CCc3cc(-n4c(-c5cccnc5N)nc5ccc(-n6cccn6)nc54)ccc32)CC1` [Example 29, N-[(1S)-5-[2-(2-aminopyridin-3-yl)-5-(pyrazol-1-yl)imidazo[4,5-b]pyridin-3-yl]-2,3-dihydro-1H-inden-1-yl]-1-(prop-2-enoyl)piperidine-4-carboxamide], the pIC50 in assay [1] was 7.09; in assay [2], 6.60; in assay [3] it was 7.30; in assay [4] (Homo sapiens, LAPC4, 72 h), 6.67.

`C=CC(=O)N1CCC(N[C@H]2CCc3cc(-n4c(-c5cccnc5N)nc5ccc(C6CCC6)nc54)ccc32)CC1` [Example 195, 1-(4-{[(1S)-5-[2-(2-aminopyridin-3-yl)-5-cyclobutylimidazo[4,5-b]pyridin-3-yl]-2,3-dihydro-1H-inden-1-yl]amino}piperidin-1-yl)prop-2-en-1-one]: the pIC50 in assay [1] was 8.13; in assay [2], 7.09; in assay [3], 6.38; in assay [4] (Homo sapiens, LAPC4, 72 h), 6.50.

For the molecule `C=CC(=O)N1CCCC(N[C@H]2CCc3cc(-n4c(-c5cccnc5N)nc5ccc(-n6cccn6)nc54)ccc32)C1` (single isomer, unassigned) [Example 124, 1-[(3*)-3-{[(1S)-5-[2-(2-aminopyridin-3-yl)-5-(pyrazol-1-yl)imidazo[4,5-b]pyridin-3-yl]-2,3-dihydro-1H-inden-1-yl]amino}piperidin-1-yl]prop-2-en-1-one], the pIC50 in assay [1] was 7.00; in assay [2] it was 5.95; in assay [3], 7.27; in assay [4] (72 h), 5.31.

As to `C=CC(=O)N1CCC(N[C@H]2CCc3cc(-n4c(-c5cccnc5N)nc5ccc(-n6ccc(C7(C#N)CC7)n6)nc54)ccc32)CC1` [Example 322, (S)-1-(1-(3-(1-((1-acryloylpiperidin-4-yl)amino)-2,3-dihydro-1H-inden-5-yl)-2-(2-aminopyridin-3-yl)-3H-imidazo[4,5-b]pyridin-5-yl)-1H-pyrazol-3-yl)cyclopropane-1-carbonitrile], the pIC50 in assay [1] is 8.26; in assay [2], 7.38; in assay [3], 6.61; in assay [4] (Homo sapiens, LAPC4, 72 h), 6.86.

With `C=CC(=O)N1CCOCC(N[C@H]2CCc3cc(-n4c(-c5cccnc5N)nc5ccc(-n6cccn6)nc54)ccc32)C1` (single isomer, unassigned) [Example 54, 1-((*)-6-(((S)-5-(2-(2-aminopyridin-3-yl)-5-(1H-pyrazol-1-yl)-3H-imidazo[4,5-b]pyridin-3-yl)-2,3-dihydro-1H-inden-1-yl)amino)-1,4-oxazepan-4-yl)prop-2-en-1-one], the pIC50 in assay [1] is 7.23; in assay [2], 6.53; in assay [3] it was 7.57; in assay [4] (72 h) it was 6.97.

For `C=CC(=O)N1C[C@H]2C[C@@H](C1)C2N[C@H]1CCc2cc(-n3c(-c4cccnc4N)nc4ccc(-n5cccn5)nc43)ccc21` (single isomer, unassigned) [Example 60, 1-((1R,5S,6*)-6-(((S)-5-(2-(2-aminopyridin-3-yl)-5-(1H-pyrazol-1-yl)-3H-imidazo[4,5-b]pyridin-3-yl)-2,3-dihydro-1H-inden-1-yl)amino)-3-azabicyclo[3.1.1]heptan-3-yl)prop-2-en-1-one], the pIC50 was 6.39 in assay [1], 5.77 in assay [2], < 6.00 in assay [3] and 5.86 in assay [4] (72 h).

Consider `C=CC(=O)N1CCc2cccc(C(=O)N[C@H]3CCc4cc(-n5c(-c6cccnc6N)nc6ccc(-n7cccn7)nc65)ccc43)c21` [Example 10, N-[(1S)-5-[2-(2-aminopyridin-3-yl)-5-(pyrazol-1-yl)imidazo[4,5-b]pyridin-3-yl]-2,3-dihydro-1H-inden-1-yl]1-(prop-2-enoyl)-2,3-dihydroindole-7-carboxamide], for which the pIC50 in assay [1] was < 6.00; in assay [2], 5.83; in assay [3] it was 6.92; in assay [4] (Homo sapiens, LAPC4, 72 h) it was 5.73.

For `C=CC(=O)N1CCC(N[C@H]2CCc3cc(-n4c(-c5cccnc5N)nc5ccc(-n6ccc(F)n6)nc54)ccc32)CC1` [Example 49, (S)-1-(4-((5-(2-(2-aminopyridin-3-yl)-5-(3-fluoro-1H-pyrazol-1-yl)-3H-imidazo[4,5-b]pyridin-3-yl)-2,3-dihydro-1H-inden-1-yl)amino)piperidin-1-yl)prop-2-en-1-one], the pIC50 was 6.84 in assay [1]; 6.01 in assay [2]; 7.29 in assay [3]; 6.39 in assay [4] (Homo sapiens, LAPC4, 72 h).

Regarding `C=CC(=O)N1CCC(N[C@H]2CCc3cc(-n4c(-c5cccnc5N)nc5ccc(-n6cccn6)nc54)ccc32)CC12CCC2` (single isomer, unassigned) [Example 94, 1-((*)-8-(((S)-5-(2-(2-aminopyridin-3-yl)-5-(1H-pyrazol-1-yl)-3H-imidazo[4,5-b]pyridin-3-yl)-2,3-dihydro-1H-inden-1-yl)amino)-5-azaspiro[3.5]nonan-5-yl)prop-2-en-1-one], the pIC50 in assay [1] is 6.19; in assay [2] it was 5.58; in assay [3] it was 6.83; in assay [4] (72 h) it was 5.93.

Consider `C=CC(=O)N1CCC(N[C@H]2CCc3cc(-n4c(-c5cccnc5N)nc5ccc(N6CCC(F)CC6)nc54)ccc32)CC1` [Example 238, 1-(4-{[(1S)-5-[2-(2-aminopyridin-3-yl)-5-(4-fluoropiperidin-1-yl)imidazo[4,5-b]pyridin-3-yl]-2,3-dihydro-1H-inden-1-yl]amino}piperidin-1-yl)prop-2-en-1-one], for which the pIC50 in assay [1] is 7.43; in assay [2] it was 6.18; in assay [3] it was 6.17; in assay [4] (Homo sapiens, LAPC4, 72 h), 6.18.

For `C=CC(=O)N1CCC(N[C@H]2CCc3cc(-n4c(-c5cccs5)nc5ccc(-n6cccn6)nc54)ccc32)CC1` [Example 239, 1-(4-{[(1S)-5-[5-(pyrazol-1-yl)-2-(thiophen-2-yl)imidazo[4,5-b]pyridin-3-yl]-2,3-dihydro-1H-inden-1-yl]amino}piperidin-1-yl)prop-2-en-1-one], the pIC50 in assay [1] is 7.36; in assay [2], 6.48; in assay [3], 5.84; in assay [4] (Homo sapiens, LAPC4, 72 h), 5.99.

As to `C=CC(=O)N1CCN(NC2CCc3cc(-n4c(-c5cccnc5N)nc5ccc(-n6cccn6)nc54)ccc32)CC1` (single isomer, unassigned) [Example 147, (*)-1-(4-((5-(2-(2-aminopyridin-3-yl)-5-(1H-pyrazol-1-yl)-3H-imidazo[4,5-b]pyridin-3-yl)-2,3-dihydro-1H-inden-1-yl)amino)piperazin-1-yl)prop-2-en-1-one], the pIC50 is 6.82 in assay [1], 6.04 in assay [2], 7.49 in assay [3] and 6.40 in assay [4] (72 h).

Take `C=CC(=O)N1CCC(N[C@@H]2c3ccc(-n4c(-c5cccnc5N)nc5ccc(-c6ccn(C(F)F)n6)nc54)cc3CC2F)CC1` (stereo partly drawn) [Example 310, 1-(4-(((1R,2*)-5-(2-(2-aminopyridin-3-yl)-5-(1-(difluoromethyl)-1H-pyrazol-3-yl)-3H-imidazo[4,5-b]pyridin-3-yl)-2-fluoro-2,3-dihydro-1H-inden-1-yl)amino)piperidin-1-yl)prop-2-en-1-one]: the pIC50 in assay [1] was 7.46; in assay [2], 6.56; in assay [3], 5.83; in assay [4] (72 h), 6.26.
